Experimental findings from EPA's ToxValDB 9.5 (doi:10.2903/j.efsa.2017.4693) are described below.

One data set has as its system Apis mellifera. The following applies: acute, duration: 48 hours, mortality.
The subject of a further data set is Canidae. The following applies: oral, Dog Other, body weight.
The subject of a further data set is Colinus virginianus. To be noted: acute; oral; mortality.
In the next data set the test system is Daphnia magna. To be noted: chronic/long-term; duration: 21 days; reproduction.
In a further data set the test system is Hypoaspis aculeifer. The following applies: chronic/long-term; duration: 14 days; reproduction.
The subject of a further data set is Lepomis macrochirus. The following applies: acute; duration: 96 hours; mortality.
The test system of another data set is Mus musculus. To be noted: acute; oral; mortality.
The subject of a further data set is Oncorhynchus mykiss. To be noted: chronic/long-term; duration: 87 days; growth.
The next data set deals with Tagia sp. The following applies: chronic/long-term; reproduction.
The next data set has as its system Typhlodromus pyri. Kind of data set: LR50; higher = less toxic. The following applies: not reported; mortality.

Molecules are shown by their SMILES. ≈ marks a conversion by molar mass, not a printed value.

In the data set with Anas platyrhynchos (reproductive, duration: 23 weeks, F), `COc1ccc(-c2ccccc2)cc1NNC(=O)OC(C)C` [Bifenazate] returned an NOEL of 2.3 mg/kg-day. Also, the LD50 is 106 mg/kg-day with Anas platyrhynchos (short-term, oral, feed, mortality); 8.5 µg/piece in the data set on Apis mellifera (dermal); above 100 µg/piece in the data set on Apis mellifera (oral, unspecified); 1040 mg/kg-day in the data set on Colinus virginianus; above 5000 mg/kg-day with Mus musculus; above 5000 mg/kg-day in the data set with Rattus norvegicus (acute, oral, mortality). Also, the NOAEL in the data set with Canidae (chronic, duration: 1 years) was 1 mg/kg-day; with Canidae (subchronic, duration: 90 days) it was 1 mg/kg-day; in the data set with Rattus norvegicus (chronic, duration: 2 years, hematological), 1 mg/kg-day; in the data set with Rattus norvegicus (reproduction developmental, body weight), 10 mg/kg-day; in the data set on Rattus norvegicus (reproduction developmental, food consumption) it was 1.5 mg/kg-day. In addition, the NOEC in the data set with Daphnia magna was 0.15 mg/L; in the data set with Hypoaspis aculeifer it was 6.56 mg/kg; in the data set with Oncorhynchus mykiss it was 0.017 mg/L; in the data set on Tagia sp., 9.75 mg/kg. Further, the LC50 in the data set on Lepomis macrochirus is 0.58 µg/mL (≈ 1.93 µM). For the same molecule, the LR50 in the data set on Typhlodromus pyri amounted to 23.8 g/ha.

The term NOAEL denotes the highest tested level that showed no adverse finding. In general, LC50 refers to the concentration that kills 50% of the test population.
